Patent publication US8029920B2, “1,3,5-tris(diarylamino)benzenes and use thereof” (Bando Chemical Industries, Ltd, priority 2006, dated 2011)

Legend:
[1] = Differential scanning calorimetry (DSC), glass transition temperature; assay type: physicochemical
Excerpt: Differential Scanning Calorimetry (DSC):
(§1) The compound (3) is excellent in heat resistance.
The compound is excellent in heat resistance.

[2] = Solubility test in heated toluene; assay type: physicochemical
Procedure: 500 mL of heated toluene was needed to dissolve 1 g of the compound (2), but 50 mL of heated toluene was needed to dissolve 1 g of the compound (3).
500 mL of heated toluene was needed to dissolve 1 g of the compound (2), but 50 mL of heated toluene was needed to dissolve 1 g of the compound (4).

[3] = Vacuum evaporation temperature test with HPLC of boat residual; assay type: physicochemical; settings: for purity of residual on the vacuum evaporation boat after vacuum evaporation / purity of residual on the vacuum evaporation boat before vacuum evaporation: HPLC; for purity of residual on the vacuum evaporation boat after vacuum evaporation: after vacuum evaporation (thermal stability); for temperature needed to obtain an evaporation rate of 5 Å/second: vacuum evaporation
Procedure: (Vacuum Evaporation Temperature Test)
(§2) The residual on the vacuum evaporation boat before and after vacuum evaporation of the compound (3) was analyzed by high performance liquid chromatography, showing that the residual on the vacuum evaporation boat before and after vacuum evaporation was in fact found to have a purity of 100.00%.
(§3) In contrast, the compound (2) starts decomposition at a temperature of 412° C. as shown by the TG/DTA measurement. Since the temperature is close to the above-mentioned vacuum evaporation temperature (415° C.), it is expected that the compound (2) is accompanied by thermal decomposition at the vacuum evaporation temperature.

[4] = Thermogravimetric measurement/differential thermal analysis (TG/DTA); assay type: physicochemical
Procedure: Thermogravimetric Measurement/Differential Thermal Analysis (TG/DTA):
as §1, §2, §3
The compound (4) is excellent in heat resistance.

[5] = prior art, JP-A-2004-155754; cited from earlier work
Cyclic voltammetry (CV) = assay type: physicochemical; settings: for stability in repetition: repeated oxidation-reduction

Compound | glass transition temperature (Tg) [1] | heated toluene needed to dissolve 1 g of the compound [2] [mL] | purity of residual on the vacuum evaporation boat after vacuum evaporation [3] [%] | purity of residual on the vacuum evaporation boat before vacuum evaporation [3] [%] | temperature needed to obtain an evaporation rate of 5 Å/second [3] [°C] | temperature at which decomposition starts [4] [°C] | glass transition temperature [5] [°C] | oxidation potential (Cyclic voltammetry (CV)) | reversibility of oxidation-reduction process (Cyclic voltammetry (CV)) | stability in repetition (Cyclic voltammetry (CV)) | decomposition temperature [4] [°C]
Cc1ccc(-c2ccc(N(c3ccc(-c4ccc(C)cc4)cc3)c3cc(N(c4ccc(-c5ccc(C)cc5)cc4)c4ccc(-c5ccc(C)cc5)cc4)cc(N(c4ccc(-c5ccc(C)cc5)cc4)c4ccc(-c5ccc(C)cc5)cc4)c3)cc2)cc1 [compound (2), 1,3,5-tris(N,N-bis(4′-methyl-4-biphenylyl)amino)benzene, reference compound] | no glass transition temperature | 500 | 95.87 | 99.03 | 415 | 412 | – | – | – | – | –
Cc1ccc(N(c2cc(N(c3ccc(C)cc3)c3cccc4ccccc34)cc(N(c3ccc(C)cc3)c3cccc4ccccc34)c2)c2cccc3ccccc23)cc1 [p-MTPNAB, 1,3,5-tris(N-(p-methylphenyl)-N-(1-naphthyl))-amino benzene] | – | – | – | – | – | – | 87 | – | – | – | –
Cc1ccc(-c2ccc(N(c3ccc(-c4ccc(C)cc4)cc3)c3cc(N(c4ccc(C)cc4)c4ccc(C)cc4)cc(N(c4ccc(-c5ccc(C)cc5)cc4)c4ccc(-c5ccc(C)cc5)cc4)c3)cc2)cc1 [compound (3), N,N,N′,N′-tetrakis(4′-methyl-4-biphenylyl)-N″,N″-bis(4-methylphenyl)benzene-1,3,5-triamine] | 179 °C | 50 | 100.00 | 100.00 | 350 | 430 | – | 0.52 V (vs. Ag/Ag^+) | excellent | good | 478
Cc1ccc(N(c2ccc(-c3ccccc3)cc2)c2cc(N(c3ccc(C)cc3)c3ccc(-c4ccccc4)cc3)cc(N(c3ccc(C)cc3)c3ccc(-c4ccccc4)cc3)c2)cc1 [p-MTPBAB, 1,3,5-tris(N-(p-methylphenyl)-N-(4-biphenylyl)amino)benzene] | – | – | – | – | – | – | 98 | – | – | – | –
Cc1ccc(-c2ccc(N(c3ccc(C)cc3)c3cc(N(c4ccc(C)cc4)c4ccc(-c5ccc(C)cc5)cc4)cc(N(c4ccc(C)cc4)c4ccc(-c5ccc(C)cc5)cc4)c3)cc2)cc1 [compound (1), 1,3,5-tris(N-(4′-methyl-4-biphenylyl)-N-(4-methylphenyl)amino)benzene, reference compound] | 103 °C | – | – | – | – | – | – | – | – | – | –
Cc1ccc(N(c2ccc(C)cc2)c2cc(N(c3ccc(-c4ccccc4)cc3)c3ccc(-c4ccccc4)cc3)cc(N(c3ccc(-c4ccccc4)cc3)c3ccc(-c4ccccc4)cc3)c2)cc1 [compound (4), N,N,N′,N′-tetrakis(4-biphenylyl)-N″,N″-bis(4-methylphenyl)benzene-1,3,5-triamine] | 133 °C | 50 | 99.64 | 99.30 | 340 | 498 | – | 0.54 V (vs. Ag/Ag^+) | excellent | good | 498
